In patent US20230365554A1, “SUBSTITUTED PYRROLO-PYRIDINONE DERIVATIVES AND THERAPEUTIC USES THEREOF” (The Broad Institute, Inc., priority 2020, published 2023):
“And” between values parts separate entries of the source, which are not always exact repeats. Equal values may be shown once.

Key:
human CSNK1D = human CSNK1D (Homo sapiens (Human), UniProt P48730); experiment: CSNK1D assay (ADP-Glo, 1 μM ATP); format: biochemical; conditions: median, Table 2, read-out: CSNK1D IC50 [mol/l] (median)
Method in brief: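 GST-tagged full-length human CSNK1D (baculovirus/insect cell; typically about 0.5 ng/μL) preincubated with compound 15 min, then reacted 30 min at 22 °C with 1 μM ATP and 30 μM biotinylated peptide (final) in HEPES pH 7.5 buffer. ADP quantified by ADP-Glo luminescence; data normalised to no-inhibitor and no-enzyme controls.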

[1] = target: wild-type Epidermal Growth Factor Receptor (EGFR) (Homo sapiens (Human), UniProt P00533); experiment: WT-EGFR kinase assay (TR-FRET, 2 mM ATP); format: biochemical; conditions: median or individual measurements, Table 3, read-out: EGFR Wildtyp-2mM ATP IC50 [mol/l] (median)
Source text: Inhibitory activity of compounds of the present invention against wild-type Epidermal Growth Factor Receptor (EGFR) was quantified employing the TR-FRET based EGFR assay as described in the following paragraphs.
Recombinant fusion protein of N-terminal Glutathion-S-Transferase (GST) and a fragment of human EGFR (amino acids R669 to A1210), expressed in Sf9 insect cells and purified via affinity chromatography using Glutathion Sepharose as described above, was used as kinase. As substrate for the kinase reaction the biotinylated peptide biotin-Ahx-AEEEEYFELVAKKK (C-terminus in amide form) was used which can be purchased e.g. form the company Biosynthan GmbH (Berlin-Buch, Germany).
For the assay 50 nl of a 100 fold concentrated solution of the test compound in DMSO was pipetted into either a black low volume 384 well microtiter plate or a black 1536 well microtiter plate (both Greiner Bio-One, Frickenhausen, Germany), 2 μL of a solution of EGFR in aqueous assay buffer [50 mM Hepes pH 7.0, 10 mM MgCl2, 1 mM dithiothreitol, 0.5 mM EGTA, 0.3 mM activated sodium ortho-vanadate, 0.005% (w/v) bovine serum albumin, 0.005% (v/v) Tween-20] were added and the mixture was incubated for 15 min at 22° C. to allow pre-binding of the test compounds to the enzyme before the start of the kinase reaction. Then the kinase reaction was started by the addition of 3 μL of a solution of adenosine-tri-phosphate (ATP, 3.33 mM=>final conc. in the 5 μL assay volume is 2 mM) and substrate (1.67 μM=>final conc. in the 5 μL assay volume is 1 μM) in assay buffer and the resulting mixture was incubated for a reaction time of 30 min at 22° C. The concentration of EGFR was adjusted depending of the activity of the enzyme lot and was chosen appropriate to have the assay in the linear range, typical concentration was 7.6 pg/μL. The reaction was stopped by the addition of 3 μL of a solution of HTRF detection reagents (83.3 nM streptavidine-XL665 [Cisbio Bioassays, Codolet, France] and 1.67 nM PT66-Tb-Cryptate, a terbium-cryptate labelled anti-phospho-tyrosine antibody from Cisbio Bioassays [instead of the PT66-Tb-cryptate PT66-Eu-Chelate from Perkin Elmer can also be used]) in an aqueous EDTA-solution (133.3 mM EDTA, 0.2% (w/v) bovine serum albumin in 50 mM HEPES pH 7.5).
The resulting mixture was incubated 1 h at 22° C. to allow the binding of the biotinylated phosphorylated peptide to the streptavidine-XL665 and the PT66-Tb-Cryptate. Subsequently the amount of phosphorylated substrate was evaluated by measurement of the resonance energy transfer from the PT66-Tb-Cryptate to the streptavidine-XL665. Therefore, the fluorescence emissions at 620 nm and 665 nm after excitation at 337 nm were measured in a HTRF reader, e.g. a Pherastar (BMG Labtechnologies, Offenburg, Germany) or a Viewlux (Perkin-Elmer). The ratio of the emissions at 665 nm and at […] was taken as the measure for the amount of phosphorylated substrate. The data were normalised (enzyme reaction without inhibitor=0% inhibition, all other assay components but no enzyme=100% inhibition).

Chain of wild-type Epidermal Growth Factor Receptor (EGFR) (P00533 669-1210): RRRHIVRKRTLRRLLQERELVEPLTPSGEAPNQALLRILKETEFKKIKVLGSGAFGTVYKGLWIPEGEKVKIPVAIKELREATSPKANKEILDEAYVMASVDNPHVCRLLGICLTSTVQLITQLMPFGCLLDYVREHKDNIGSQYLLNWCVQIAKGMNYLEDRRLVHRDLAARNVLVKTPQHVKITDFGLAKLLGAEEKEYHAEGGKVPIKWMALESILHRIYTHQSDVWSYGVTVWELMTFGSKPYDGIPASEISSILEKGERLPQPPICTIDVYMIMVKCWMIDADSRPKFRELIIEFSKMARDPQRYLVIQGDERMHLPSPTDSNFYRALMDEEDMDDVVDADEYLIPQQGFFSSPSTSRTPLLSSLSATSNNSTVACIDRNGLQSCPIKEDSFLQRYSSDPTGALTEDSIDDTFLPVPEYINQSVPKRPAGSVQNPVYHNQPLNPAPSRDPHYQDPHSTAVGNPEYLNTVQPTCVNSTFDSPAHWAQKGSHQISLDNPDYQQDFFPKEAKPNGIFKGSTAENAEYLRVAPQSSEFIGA
Chain of human CSNK1D (P48730 whole entry): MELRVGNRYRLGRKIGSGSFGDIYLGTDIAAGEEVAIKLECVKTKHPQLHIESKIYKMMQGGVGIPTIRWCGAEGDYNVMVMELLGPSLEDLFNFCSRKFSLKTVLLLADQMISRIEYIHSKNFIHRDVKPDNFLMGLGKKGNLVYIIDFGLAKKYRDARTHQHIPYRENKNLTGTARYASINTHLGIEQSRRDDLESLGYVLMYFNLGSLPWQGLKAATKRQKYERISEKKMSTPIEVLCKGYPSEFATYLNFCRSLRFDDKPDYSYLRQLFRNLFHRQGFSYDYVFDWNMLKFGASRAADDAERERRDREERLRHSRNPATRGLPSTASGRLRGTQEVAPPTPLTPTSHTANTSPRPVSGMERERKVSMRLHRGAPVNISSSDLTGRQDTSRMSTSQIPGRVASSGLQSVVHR

| SMILES | IC50 (human CSNK1D) | IC50 [1] |
| --- | --- | --- |
| Cn1cc(CC(F)(F)F)c2[nH]c(-c3ccnc(NC(=O)C(CC(F)F)c4ccc(F)cc4)c3)c(Nc3ccccc3)c2c1=O (single isomer, unassigned) [Example 37, N-{4-[3-anilino-5-methyl-4-oxo-7-(2,2,2-trifluoroethyl)-4,5-dihydro-1H-pyrrolo[3,2-c]pyridin-2-yl]pyridin-2-yl}-4,4-difluoro-2-(4-fluorophenyl)butanamide] | 0.015 µM | 0.12 µM |
| Cc1cn(C)c(=O)c2c(Nc3ccccc3)c(-c3ccnc(NC(=O)C(C)c4ccc(F)cc4)c3)[nH]c12 (single isomer, unassigned) [Example 40, N-[4-(3-anilino-5,7-dimethyl-4-oxo-4,5-dihydro-1H-pyrrolo[3,2-c]pyridin-2-yl)pyridin-2-yl]-2-(4-fluorophenyl)propanamide] | 0.019 µM | 17 µM |
| Cc1cn(C)c(=O)c2c(Nc3ccccc3)c(-c3ccnc(NC(=O)C(C)c4ccc(F)cc4)c3)[nH]c12 (single isomer, unassigned) [Example 41, N-[4-(3-anilino-5,7-dimethyl-4-oxo-4,5-dihydro-1H-pyrrolo[3,2-c]pyridin-2-yl)pyridin-2-yl]-2-(4-fluorophenyl)propanamide] | 0.088 µM | 9.1 µM |
| CN1CC(CC(F)F)c2[nH]c(-c3ccnc(NC(=O)Cc4ccc(F)cc4)c3)c(Nc3ccccc3)c2C1=O (single isomer, unassigned) [Example 43, N-{4-[3-anilino-7-(2,2-difluoroethyl)-5-methyl-4-oxo-4,5,6,7-tetrahydro-1H-pyrrolo[3,2-c]pyridin-2-yl]pyridin-2-yl}-2-(4-fluorophenyl)acetamide] | 0.0043 µM | 0.41 µM |
| CN1CC(CC(F)F)c2[nH]c(-c3ccnc(NC(=O)Cc4ccc(F)cc4)c3)c(Nc3ccccc3)c2C1=O (single isomer, unassigned) [Example 44, N-{4-[3-anilino-7-(2,2-difluoroethyl)-5-methyl-4-oxo-4,5,6,7-tetrahydro-1H-pyrrolo[3,2-c]pyridin-2-yl]pyridin-2-yl}-2-(4-fluorophenyl)acetamide] | 0.0059 µM | 0.49 µM |
| CN1CC(CC(F)(F)F)c2[nH]c(-c3ccnc(NC(=O)Cc4ccc(F)cc4)c3)c(Nc3cscn3)c2C1=O (single isomer, unassigned) [Example 47, 2-(4-fluorophenyl)-N-{4-[(7R or S)-5-methyl-4-oxo-3-(1,3-thiazol-4-ylamino)-7-(2,2,2-trifluoroethyl)-4,5,6,7-tetrahydro-1H-pyrrolo[3,2-c]pyridin-2-yl]pyridin-2-yl}acetamide] | 0.0084 µM | > 20 µM |
| CN1CC(CC(F)(F)F)c2[nH]c(-c3ccnc(NC(=O)Cc4ccc(F)cc4)c3)c(Nc3cscn3)c2C1=O (single isomer, unassigned) [Example 48, 2-(4-fluorophenyl)-N-{4-[(7R or S)-5-methyl-4-oxo-3-(1,3-thiazol-4-ylamino)-7-(2,2,2-trifluoroethyl)-4,5,6,7-tetrahydro-1H-pyrrolo[3,2-c]pyridin-2-yl]pyridin-2-yl}acetamide] | 0.032 µM | > 20 µM |
| CN1CC(CC2CC2)c2[nH]c(-c3ccnc(NC(=O)Cc4ccc(F)cc4)c3)c(Nc3cscn3)c2C1=O (single isomer, unassigned) [Example 50, N-{4-[(7R or S)-7-(cyclopropylmethyl)-5-methyl-4-oxo-3-(1,3-thiazol-4-ylamino)-4,5,6,7-tetrahydro-1H-pyrrolo[3,2-c]pyridin-2-yl]pyridin-2-yl}-2-(4-fluorophenyl)acetamide] | 0.0099 µM | > 20 µM |
| CN1CC(CC2CC2)c2[nH]c(-c3ccnc(NC(=O)Cc4ccc(F)cc4)c3)c(Nc3cscn3)c2C1=O (single isomer, unassigned) [Example 51, N-{4-[(7R or S)-7-(cyclopropylmethyl)-5-methyl-4-oxo-3-(1,3-thiazol-4-ylamino)-4,5,6,7-tetrahydro-1H-pyrrolo[3,2-c]pyridin-2-yl]pyridin-2-yl}-2-(4-fluorophenyl)acetamide] | 0.057 µM | 17.2 µM and > 20 µM |
| CN1CC(CC(F)(F)F)c2[nH]c(-c3ccnc(NC(=O)C(CC(F)F)c4ccc(F)cc4)c3)c(Nc3cscn3)c2C1=O (single isomer, unassigned) [Example 53, (2R or S)-4,4-difluoro-2-(4-fluorophenyl)-N-{4-[(7R or S)-5-methyl-4-oxo-3-[(1,3-thiazol-4-yl)amino]-7-(2,2,2-trifluoroethyl)-4,5,6,7-tetrahydro-1H-pyrrolo[3,2-c]pyridin-2-yl]pyridin-2-yl}butanamide] | 0.035 µM | > 20 µM |
| CN1CC(CC(F)(F)F)c2[nH]c(-c3ccnc(NC(=O)C(CC(F)F)c4ccc(F)cc4)c3)c(Nc3cscn3)c2C1=O (single isomer, unassigned) [Example 54, (2R or S)-4,4-difluoro-2-(4-fluorophenyl)-N-{4-[(7R or S)-5-methyl-4-oxo-3-[(1,3-thiazol-4-yl)amino]-7-(2,2,2-trifluoroethyl)-4,5,6,7-tetrahydro-1H-pyrrolo[3,2-c]pyridin-2-yl]pyridin-2-yl}butanamide] | 0.004 µM | > 20 µM |
| CN1CC(CC(F)(F)F)c2[nH]c(-c3ccnc(NC(=O)C(CC(F)F)c4ccc(F)cc4)c3)c(Nc3cscn3)c2C1=O (single isomer, unassigned) [Example 55, (2R or S)-4,4-difluoro-2-(4-fluorophenyl)-N-{4-[(7R or S)-5-methyl-4-oxo-3-[(1,3-thiazol-4-yl)amino]-7-(2,2,2-trifluoroethyl)-4,5,6,7-tetrahydro-1H-pyrrolo[3,2-c]pyridin-2-yl]pyridin-2-yl}butanamide] | 0.11 µM | 10.8 µM and 9.47 µM |
| CN1CC(CC(F)(F)F)c2[nH]c(-c3ccnc(NC(=O)C(CC(F)F)c4ccc(F)cc4)c3)c(Nc3cscn3)c2C1=O (single isomer, unassigned) [Example 56, (2R or S)-4,4-difluoro-2-(4-fluorophenyl)-N-{4-[(7R or S)-5-methyl-4-oxo-3-[(1,3-thiazol-4-yl)amino]-7-(2,2,2-trifluoroethyl)-4,5,6,7-tetrahydro-1H-pyrrolo[3,2-c]pyridin-2-yl]pyridin-2-yl}butanamide] | 0.013 µM | > 20 µM |
| CC1CN(C)C(=O)c2c1[nH]c(-c1ccnc(NC(=O)Cc3ccc(F)cc3)c1)c2Nc1ccccc1 (single isomer, unassigned; (+)) [Example 8, (+)-N-{4-[3-anilino-5,7-dimethyl-4-oxo-4,5,6,7-tetrahydro-1H-pyrrolo[3,2-c]pyridin-2-yl]pyridin-2-yl}-2-(4-fluorophenyl)acetamide] | 0.026 µM | 3 µM |
| O=C1N[C@@H]2CCC[C@@H]2c2[nH]c(-c3ccnc(NC(=O)C(CC(F)F)c4ccc(F)cc4)c3)c(Nc3ccccc3)c21 (single isomer, unassigned; (+)) [Example 22, (+)-(2R or S)—N-{4-[cis-3-anilino-4-oxo-1,4,5,5a,6,7,8,8a-octahydrocyclopenta[b]pyrrolo[2,3-d]pyridin-2-yl]pyridin-2-yl}-4,4-difluoro-2-(4-fluorophenyl)butanamide] | 0.0063 µM | > 20 µM |
| O=C1N[C@@H]2CCC[C@@H]2c2[nH]c(-c3ccnc(NC(=O)C(CC(F)F)c4ccc(F)cc4)c3)c(Nc3ccccc3)c21 (single isomer, unassigned; (+)) [Example 25, (+)-(2R or S)—N-{4-[cis-3-anilino-4-oxo-1,4,5,5a,6,7,8,8a-octahydrocyclopenta[b]pyrrolo[2,3-d]pyridin-2-yl]pyridin-2-yl}-4,4-difluoro-2-(4-fluorophenyl)butanamide] | 0.0031 µM | > 20 µM |
